Results as given in patent US20140357487A1, “PLANTS HAVING INCREASED TOLERANCE TO HERBICIDES” (BASF SE, priority 2011, published 2014).

Tests used:
Type in all cases: biochemical
[1] = molecular target: T1, Arabidopsis HPPD variant M335H, P336A, E363Q (Arabidopsis thaliana, UniProt P93836, E363Q/M335H/P336A); test: HPPD activity assay, Arabidopsis HPPD mutant M335H, P336A, E363Q; details: normalized on Arabidopsis wild-type HPPD
T1 construct: PCR-based site directed mutagenesis of pEXP5-NT/TOPO®-AtHPPD is done; His6 (N); made in house; host or cells: E. coli BL21 (DE3)
T1 sequence (P93836 whole entry M335H/P336A/E363Q): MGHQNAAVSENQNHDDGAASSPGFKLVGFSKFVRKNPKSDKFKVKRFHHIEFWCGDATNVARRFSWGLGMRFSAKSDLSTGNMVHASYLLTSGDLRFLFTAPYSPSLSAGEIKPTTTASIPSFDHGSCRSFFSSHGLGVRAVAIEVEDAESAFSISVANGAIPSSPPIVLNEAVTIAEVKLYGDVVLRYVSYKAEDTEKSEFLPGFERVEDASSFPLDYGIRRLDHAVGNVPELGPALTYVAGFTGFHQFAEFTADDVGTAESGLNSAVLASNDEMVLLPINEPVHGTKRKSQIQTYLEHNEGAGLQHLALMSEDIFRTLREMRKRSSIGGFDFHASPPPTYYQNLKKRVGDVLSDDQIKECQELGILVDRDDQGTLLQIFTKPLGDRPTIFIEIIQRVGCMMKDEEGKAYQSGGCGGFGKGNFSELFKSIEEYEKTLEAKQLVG
Description: (§1) HPPD produces homogentisic acid and CO2 from 4-hydroxyphenylpyruvate (4-HPP) and O2. The activity assay for HPPD is based on the analysis of homogentisic acid by reversed phase HPLC.
(§2) The assay mixture can contain 150 mM potassium phosphate buffer pH 7.0, 50 mM L-ascorbic acid, 1 μM FeSO4 and 7 μg of purified enzyme in a total volume of 1 ml.
(§3) Inhibitors are dissolved in DMSO (dimethylsulfoxide) to a concentration of 20 mM or 0.5 mM, respectively. From this stock solution serial five-fold dilutions are prepared in DMSO, which are used in the assay. The respective inhibitor solution accounts for 1% of the assay volume. […] After a preincubation of 30 min the reaction is started by adding 4-HPP to a final concentration of 0.1 mM. The reaction is allowed to proceed for 120 min at room temperature. The reaction is stopped by addition of 100 μl of 4.5 M phosphoric acid.
(§4) Activities are normalized by setting the uninhibited enzyme activity to 100%. IC50 values are calculated using non-linear regression.
(§5) The assay mixture can contain 150 mM potassium phosphate buffer pH 7.0, 50 mM L-ascorbic acid, 100 μM Catalase (Sigma-Aldrich), 1 μM FeSO4 and 0.2 units of purified HPPD enzyme in a total volume of 505 μl. 1 unit is defined as the amount of enzyme that is required to produce 1 nmol of HGA per minute at 20° C.
Inhibitors are dissolved in DMSO (dimethylsulfoxide) to a concentration of 0.5 mM. […] IC50 values are calculated using non-linear regression. […]
Purified, mutant HPPD enzymes are obtained by the methods described above. […] Apparent michaelis constants (Km) and maximal reaction velocities (Vmax) are calculated by non-linear regression with the software GraphPad Prism 5 (GraphPad Software, La Jolla, USA) using a substrate inhibition model.
(§6) Field performance of the optimized HPPD enzyme, which is used as a herbicide tolerance trait may depend not only on its lack of sensitivity towards HPPD inhibiting herbicides but also on its activity. To assess the potential performance of a herbicide tolerance trait a tolerance index (TI) is calculated using the following formula: […]

[2] = molecular target: T2, Hordeum HPPD variant G407C (Hordeum vulgare, UniProt O48604, A164G/G407C/R146V/R147D/R148G); test: HPPD activity assay, Hordeum HPPD mutant G407C; details: normalized on Hordeum wild-type HPPD
T2 construct: His (N); made in house; host or cells: E. coli BL21 (DE3)
T2 sequence (O48604 whole entry R146V/R147D/R148G/A164G/G407C): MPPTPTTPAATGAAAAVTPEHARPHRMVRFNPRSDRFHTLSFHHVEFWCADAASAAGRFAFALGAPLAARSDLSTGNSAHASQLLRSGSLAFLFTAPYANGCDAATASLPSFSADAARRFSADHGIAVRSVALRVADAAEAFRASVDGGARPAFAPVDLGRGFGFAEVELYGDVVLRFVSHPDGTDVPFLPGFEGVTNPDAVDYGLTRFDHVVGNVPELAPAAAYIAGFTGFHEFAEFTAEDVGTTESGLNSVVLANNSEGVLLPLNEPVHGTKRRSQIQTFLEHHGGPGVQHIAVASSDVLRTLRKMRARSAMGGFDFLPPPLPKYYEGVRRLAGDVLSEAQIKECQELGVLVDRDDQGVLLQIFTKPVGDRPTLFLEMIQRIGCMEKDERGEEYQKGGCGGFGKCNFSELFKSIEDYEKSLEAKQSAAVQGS
Description: as §1, §2, §3, §4, §5
(§7) Inhibitors are dissolved in DMSO (dimethylsulfoxide) to a concentration of 0.5 mM. From this stock solution serial five-fold dilutions are prepared in DMSO, which are used in the assay. The respective inhibitor solution accounts for 1% of the assay volume. […] Activities are normalized by setting the uninhibited enzyme activity to 100%. IC50 values are calculated using non-linear regression.
(§8) Purified, mutant HPPD enzymes are obtained by the methods described above. Dose response and kinetic measurements are carried out using the described HPPD activity assay. Apparent michaelis constants (Km) and maximal reaction velocities (Vmax) are calculated by non-linear regression with the software GraphPad Prism 5 (GraphPad Software, La Jolla, USA) using a substrate inhibition model.
as §6
(§9) Easy comparison and ranking of each trait is enabled by normalizing tolerance indexes on Arabidopsis or Hordeum wild-type HPPD.

[3] = molecular target: T3, Hordeum HPPD variant L320N (Hordeum vulgare, UniProt O48604, A164G/L320N/R146V/R147D/R148G); test: HPPD activity assay, Hordeum HPPD mutant L320N; details: normalized on Hordeum wild-type HPPD
T3 construct: His (N); made in house; host or cells: E. coli BL21 (DE3)
T3 sequence (O48604 whole entry R146V/R147D/R148G/A164G/L320N): as the sequence (O48604 whole entry R146V/R147D/R148G/A164G/G407C) above, with L320N, C407G counted along it
Description: as §1, §2, §3, §4, §5, §7, §8, §6, §9

Compound	Normalized tolerance index TI [1]	Normalized tolerance index TI [2]	Normalized tolerance index TI [3]
CC1=NOC(c2c(Cl)ccc(C3=C(O)c4ncccc4C(C)(C)S3(=O)=O)c2Cl)C1 (centres unmarked) [Inhibitor 1, 7-[2,4-dichloro-3-(3-methyl-4,5-dihydroisoxazol-5-yl)phenyl]-5,5-dimethyl-6,6-dioxo-thiopyrano[4,3-b]pyridin-8-ol]	5.5	2.7	2
CC1(C)c2cccnc2C(O)=C(c2ccc(Cl)nc2Cl)S1(=O)=O [Inhibitor 2, 7-(2,6-dichloro-3-pyridyl)-5,5-dimethyl-6,6-dioxo-thiopyrano[4,3-b]pyridin-8-ol]		2	1.7
COCCOCc1c(Cl)ccc(C2=C(O)c3ncccc3C(C)(C)S2(=O)=O)c1Cl [Inhibitor 3, 7-[2,4-dichloro-3-(2-methoxyethoxymethyl)phenyl]-5,5-dimethyl-6,6-dioxo-thiopyrano[4,3-b]pyridin-8-ol]	0.3	2.4	1.9
